Test results from PMC10989772 (mLife, 2022).

Columns and labels:
[1] = molecular target: Larg1 (Lpg0081) (Legionella pneumophila, UniProt Q5ZZD0)
[2] = molecular target: Larg1 (lpg0081, 16–428aa) (Legionella pneumophila, UniProt Q5ZZD0)
Sequence of Larg1 (lpg0081, 16–428aa) (Q5ZZD0 16-428 limits assumed): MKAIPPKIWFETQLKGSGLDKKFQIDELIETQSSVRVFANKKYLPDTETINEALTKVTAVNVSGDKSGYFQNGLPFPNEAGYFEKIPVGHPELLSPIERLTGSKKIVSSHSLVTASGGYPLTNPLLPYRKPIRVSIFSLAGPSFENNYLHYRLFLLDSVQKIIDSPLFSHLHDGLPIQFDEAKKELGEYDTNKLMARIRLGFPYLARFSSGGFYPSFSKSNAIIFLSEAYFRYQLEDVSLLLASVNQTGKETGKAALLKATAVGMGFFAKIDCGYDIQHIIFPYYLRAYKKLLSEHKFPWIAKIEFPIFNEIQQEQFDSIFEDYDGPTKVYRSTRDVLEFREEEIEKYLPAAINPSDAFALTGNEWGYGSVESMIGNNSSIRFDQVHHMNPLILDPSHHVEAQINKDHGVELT

Sequence of Larg1 (Lpg0081) (Q5ZZD0 1-441 limits assumed): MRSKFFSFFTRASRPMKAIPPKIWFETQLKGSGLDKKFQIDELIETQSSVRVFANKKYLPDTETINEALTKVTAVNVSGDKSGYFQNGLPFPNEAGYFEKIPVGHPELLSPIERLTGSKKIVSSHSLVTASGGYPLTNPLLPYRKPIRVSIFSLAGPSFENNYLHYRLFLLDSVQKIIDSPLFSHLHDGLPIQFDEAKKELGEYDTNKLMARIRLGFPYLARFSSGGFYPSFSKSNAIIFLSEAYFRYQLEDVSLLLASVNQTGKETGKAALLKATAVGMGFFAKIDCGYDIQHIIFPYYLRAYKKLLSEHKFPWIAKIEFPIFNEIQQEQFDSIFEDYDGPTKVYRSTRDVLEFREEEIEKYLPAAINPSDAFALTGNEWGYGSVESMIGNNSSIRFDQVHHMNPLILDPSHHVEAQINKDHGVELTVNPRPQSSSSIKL

Nc1ncnc2c1ncn2[C@@H]1O[C@H](COP(=O)(O)OP(=O)(O)OC[C@H]2OC(O)[C@H](O)[C@@H]2O)[C@@H](O)[C@H]1O (some centres unmarked) [ADPR]
Kd [1]: 3.87 µM | X-ray crystal structure, 2.32 Å [2]: to determine the structure of the Larg1‐ADPR complex (PDB:7W3S)
